Assay results as given in ChEMBL document CHEMBL1144071, “Elisabatins A and B: new amphilectane-type diterpenes from the West Indian sea whip Pseudopterogorgia elisabethae” (1999).
Calls of active or inactive are those of the source. The calls are words filed in the database; no cut-off is given here.

How the values were obtained:
[1] = system: Mycobacterium tuberculosis; test: Antimycobacterial activity against Mycobacterium tuberculosis at 12.5 ug/mL; type: functional
[2] = system: Human immunodeficiency virus; test: Antiviral activity against HIV by NCI test; type: functional, organism-based

For `CC(C)=C[C@@H]1C[C@H](C)c2c(O)cc(C)c3c2C1=C(C)C(=O)C3=O` [ELISABATIN A], the Activity [1] was 21% and the Activity [2] was “inactive”.
